Source: US20260176249A1, “PROTEIN KINASE INHIBITOR, PREPARATION METHOD THEREFOR, AND APPLICATION THEREOF” (SHANDONG LUYE PHARMACEUTICAL CO., LTD., priority 2021, published 2026)

How the values were obtained:
PLK1 kinase = molecular target: T1, PLK1 kinase (Homo sapiens, UniProt P53350); assay: Inhibitory activity on PLK1 kinase; type: biochemical; settings: for IC50: PLK1 kinase, highest concentration 1 μM, 10 points, read-out: IC50; for Imax: maximum effect caused by the compound at the test concentration
T1 construct: purchased Carnabio (Carna Biosciences) 05-157
T1 sequence (P53350 whole entry): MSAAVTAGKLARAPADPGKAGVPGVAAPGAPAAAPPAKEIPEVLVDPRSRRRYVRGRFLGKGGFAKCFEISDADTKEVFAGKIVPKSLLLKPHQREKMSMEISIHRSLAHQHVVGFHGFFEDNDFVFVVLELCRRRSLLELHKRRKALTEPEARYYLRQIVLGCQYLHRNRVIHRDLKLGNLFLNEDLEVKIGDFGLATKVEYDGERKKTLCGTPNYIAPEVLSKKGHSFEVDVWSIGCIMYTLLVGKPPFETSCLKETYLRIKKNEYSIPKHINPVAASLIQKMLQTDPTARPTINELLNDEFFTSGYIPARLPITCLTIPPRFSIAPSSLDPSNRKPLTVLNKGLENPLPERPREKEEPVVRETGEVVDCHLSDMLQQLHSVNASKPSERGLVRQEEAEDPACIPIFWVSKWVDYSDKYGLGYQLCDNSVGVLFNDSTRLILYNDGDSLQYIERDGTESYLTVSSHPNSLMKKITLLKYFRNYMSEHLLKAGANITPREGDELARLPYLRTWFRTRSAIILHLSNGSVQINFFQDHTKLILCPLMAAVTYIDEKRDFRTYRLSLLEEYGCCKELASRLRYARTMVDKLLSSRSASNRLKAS
Experimental: Detection solution PerkinElmer #TRF0218-M
Detection instrument PerkinElemer EnVision
a. Using the Echo machine, the compounds to be tested were diluted by 1:3 on a 384-well plate, and the highest concentration was 1 μM, with a total of 10 concentration points, and each concentration was tested in duplicate wells.
b. 5 μL/well of PLK1 kinase and peptide substrate mixture were added to the assay plate (containing controls).
d. The reaction was initiated by adding 5 μL/well of ATP solution;
e. The assay plate was centrifuged at 1000 rpm for about 15 seconds, a film was used to seal the assay plate which was incubated at 23° C. for a period of time;
f. A detection solution was added to all wells of the assay plate;
g. The assay plate was centrifuged at 1000 rpm for approximately 15 seconds, a film was used to seal the assay plate which was incubated at 23° C. for 60 min.
h. The assay plate was read on EnVision. The test results were analyzed using XLFIT5 software.

[1] = Permeability and efflux transporter substrate evaluation in Caco-2 cells; type: in vitro ADME; parameters: Papp A→B at 120 min / Papp B→A at 120 min / efflux ratio at 120 min / Papp at 120 min: dose or concentration left out as unconfirmed; settings: human; for efflux ratio at 120 min / Papp at 120 min: Caco-2, pH 7.4; for Papp at 120 min: read-out: Classification Permeability; for Papp A→B at 120 min / Papp B→A at 120 min: pH 7.4, pH 7.40; for Papp A→B at 120 min: Caco-2, apical to basolateral; for Papp B→A at 120 min: Caco-2, basolateral to apical
In short: (§1)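 Bidirectional (A-B, B-A) transport across 21-28-day Caco-2 monolayers in HBSS/10 mM HEPES pH 7.40, test substance at […], 7200 s incubation. LC-MS/MS quantitation; Papp, efflux ratio and recovery calculated, monolayer integrity checked by Lucifer Yellow rejection.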

Caco-2 cells = assay: as above; type: in vitro ADME; parameters: Papp A→B at 120 min / Papp B→A at 120 min / efflux ratio at 120 min / Papp at 120 min: dose or concentration left out as unconfirmed; settings: Caco-2
In short: as §1

IC50 (PLK1 kinase) [nM] | Imax (PLK1 kinase) [%] | efflux ratio at 120 min [1] | Papp at 120 min [1] [×10⁻⁶ cm/s] | Papp A→B at 120 min [1] [×10⁻⁶ cm/s] | Papp B→A at 120 min [1] [×10⁻⁶ cm/s] | Classification Efflux transporter substrate (Caco-2 cells) | Structure (SMILES)
1.64 | 99.51 | 22.1 | 0.5 to 2.5 | 1.16 | 25.5 | Likely (ERa ≥ 2.00) | CN1CCN(c2ccc(OC(F)(F)F)c(Nc3ncc4c(n3)-c3c(c(C(N)=O)nn3CCC#N)CC4)c2)CC1 [Compound 4]
2.49 | 99.41 | > 28.6 | < 0.5 | < 0.48 | 13.7 | Likely (ERa ≥ 2.00) | CN1CCN(c2ccc(OC(F)(F)F)c(Nc3ncc4c(n3)-c3c(c(C(=O)NN)nn3CCO)CC4)c2)CC1 [Compound 13]
4.77 | 98.76 | 7.27 | 0.5 to 2.5 | 0.917 | 6.66 | Likely (ERa ≥ 2.00) | Cn1nc(C(N)=O)c2ccc3cnc(Nc4cc(N5CCN(CCO)CC5)ccc4OC(F)(F)F)nc3c21 [Compound 16]
1.21 | 99.48 | 279 | < 0.5 | 0.106 | 29.5 | Likely (ERa ≥ 2.00) | CN1CCN(c2ccc(OCC(F)(F)F)c(Nc3ncc4c(n3)-c3c(c(C(N)=O)nn3CCO)CC4)c2)CC1 [Compound 24]
0.99 | 99.81 | > 54.4 | < 0.5 | < 0.48 | 26.1 | Likely (ERa ≥ 2.00) | CN1CCN(c2ccc(OC(F)(F)F)c(Nc3ncc4c(n3)-c3c(c(C(N)=O)cn3CCO)CC4)c2)CC1 [Compound 2]
1.28 | 99.29 | 10.4 | 0.5 to 2.5 | 1.3 | 13.4 | Likely (ERa ≥ 2.00) | Cn1nc(C(N)=O)c2c1-c1nc(Nc3cc(N4CCN(CCO)CC4)ccc3OC(F)(F)F)ncc1CC2 [Compound 20]
– | 100.02 | – | < 0.5 | 0.299 | 43.6 | Likely (ERa ≥ 2.00) | CN1CCN(c2ccc(OC(F)(F)F)c(Nc3ncc4c(n3)-c3c(c(C(N)=O)nn3CCO)CC4)c2)CC1 [Onvansertib, reference compound]
